The test system of data set [1] is Renilla luciferase expressed under control of CMV promoter. As to conditions: FIG. 2. On the procedure: (§1) Wnt-3a whole pathway activation (circle); LiCl activation of downstream elements only (square); Renilla, control for cell well-being (triangle).
(§2) For the screens, BT-20 cells, stably transfected with the TOPFlash reporter plasmid were seeded at 15K cells per well in white tissue-culture-treated 96-well plates (Greiner) and incubated overnight. If needed, the cells were additionally transfected with the pRL-CMV plasmid using the X-tremeGENE HP DNA transfection reagent (Roche) according to the manufacturer's protocol and again incubated overnight. […] The medium was then removed and 12 μl 10% sucrose solution was added to the cells to prevent drying. […] Data was analyzed using the Prism 6 Software (GraphPad).

In data set [2] the test system is Wnt pathway downstream part activated by LiCl. The conditions noted are these: LiCl activation, FIG. 2. On the procedure: as §1, §2
Data set [3] deals with total β-catenin in L-cells. The conditions noted are these: 50 μM, FIG. 4. The procedure:
(§3) Cells were seeded to 70-80% confluency in 12-well plates and incubated overnight. The medium was then changed for medium containing compound or DMSO and the cells pre-incubated for 1 h. […] After washing the cells with ice cold PBS, the cells were lysed by addition of 70 μl RIPA buffer (50 mM Tris pH 7.4, 1% Triton X-100, 0.1% SDS, 150 mM NaCl, 1 mM EDTA, 1 mM DTT, protease inhibitors (Roche)) containing phosphatase inhibitors if needed (4 mM NaF, 4 mM Imidazole, 2.3 mM Na2MoO4, 4 mM Na3VO4, 8 mM M C4H4Na2O6*2H2O, 2 mM Na4P2O7, 2 mM β-Glycerophosphate) and shaking 10 min on ice. The cell lysate was collected and centrifuged for 15 min at 16000 g at 4° C. to remove cell debris. The samples were equilibrated using the Bradford method and further separated and analyzed by SDS-PAGE and Western blot respectively.

The subject of data set [4] is cytoplasmic β-catenin in BT-20 cells. The conditions noted are these: 50 μM, Wnt3a or LiCl, FIG. 3. On the procedure: as §3
For data set [5], the system named is active β-catenin in HCC 1395 cells. As to conditions: 50 μM, FIG. 4. The procedure: as §3
For data set [6], the system named is Wnt pathway (Wnt3a-stimulated) in BT-20 cells. The data set is described as follows: TOPFlash reporter assay, Wnt3a activation. Format: cell-based. As to conditions: for Efficacy (%): average efficacy, BT-20 TOPFlash; for Efficacy (%) / IC50: Wnt3a 250 ng/ml; for IC50: average potency, BT-20 cells stably transfected with TOPFlash reporter.
Source text: A commercial (ChemDiv Inc., San Diego, Calif., US) small molecule library (high-diversity GPCR-targeted compound library containing 1000 compounds selected by ChemDiv focusing on maximizing chemical diversity from the 40′000 GPCR-targeted compound library [see http://www.chemdiv.com, particularly http://www.chemdiv.com/gpcr-target-platform-library-2/]) containing 1000 compounds was screened for Wnt pathway inhibitory effect using the TOPflash assay. […] In a first round of screening, 34 randomly chosen compounds resembling compound 1, but presenting some intravariance were tested for their ability to inhibit the Wnt pathway, using the TOPFLash reporter assay.
as §2

A short description of data set [7]: In vivo pharmacokinetic profiling and tissue analysis. As to conditions: tumour bearing mice. The procedure:
An in vivo experiment was performed to get a rough ADME profile and a first impression of the tolerability of the compounds and to determine any acute toxicity. […] Blood samples were taken at regular intervals for studying the kinetics.

For data set [8] the following is noted: microsomal assay.
A further data set deals with DVL2 and DVL3 in L-cells. As to conditions: 50 μM, FIG. 5. On the procedure:
as §3
(§4) The effects of compound 1 on the upper-level phosphoprotein DVL was examined. The phosphoprotein DVL is phosphorylated on over 40 sites upon Wnt-pathway activation, which can be detected as a shift when analysed by electrophoresis.

The next data set has as its system DVL2 in HCC 1395 cells. As to conditions: 50 μM, FIG. 5. The procedure:
as §3, §4

A further data set concerns TNBC cell lines. The conditions noted are these: different TNBC cell lines, FIG. 8. The procedure:
TNBC cell lines were seeded at previously determined concentrations in 6-well plates and incubated for 24 h. The cells were then treated with the compounds or DMSO only and the colony formation followed daily by visual inspection. Once the colonies were big enough (70-100 cells), the cells were fixed with a solution of 4% PFA in PBS pH 7.4. The colonies were then stained using a solution of 1% Crystal violet and images taken of the individual wells to count the number of colonies. The colony counting and analysis was done using ImageJ.

The test system of a further data set is HCC 1395. As to conditions: MTT, HCC 1395, 72 h. The procedure:
(§5) TNBC cell lines and were seeded at previously determined concentrations in 96-well plates and incubated for 24 h. The next day, the medium was replaced with medium containing either compound or the respective amount of DMSO for the controls. The proliferation was measured after 72 h, by addition of a solution of 1 mg/ml thiazolyl blue (Roth) in PBS, further incubation for 2 h-4 h at 37° C., and lysis of the cells by addition of 50 μl DMSO. The absorbance was read at 570 nm using the Victor3 Multilabel Counter (PerkinElmer).

Another data set concerns HCC 1806. As to conditions: MTT, HCC 1806, 72 h. The procedure:
as §5

The test system of another data set is MDA-MB 468. As to conditions: MTT, MDA-MB 468, 72 h. The procedure:
as §5

The subject of a further data set is MDA-MB 231. The conditions noted are these: MTT, MDA-MB 231, 72 h. On the procedure:
as §5

A further data set deals with BT-20. The conditions noted are these: MTT, BT-20, 72 h. The procedure: as §5

Broadly, the IC50 is the concentration that gives 50% inhibition. Read a high IC50 as weaker potency.

Turning to `Cc1ccc2[nH]cc(CCNC(=O)CCc3cn(-c4ccccc4)nc3-c3ccc4c(c3)OCO4)c2c1` [Compound 1], in data set [1], the “levels of Renilla luciferase (cell well-being control)” value is on record as “not changing the levels of Renilla luciferase”. Further, the “inhibition when downstream part of the pathway is activated by LiCl” value in data set [2] is listed as “do not inhibit”. In data set [3], the “total β-catenin levels” value is on record as “clear decrease”. Also, the “accumulation of cytoplasmic β-catenin” value in data set [4] is recorded as “essentially recapitulating the results obtained using TopFlash”. Also, the “active β-catenin levels” value in data set [5] is reported as “decrease in the active-β catenin levels”. In data set [6] (Wnt-3a whole pathway activation, FIG. 2), the “suppression of Wnt3a-stimulated pathway activation” value is given as “efficient in specific suppression of the Wnt3a-stimulated pathway activation”. In data set [6], the “Efficacy (%)” value amounted to 86.3% and the IC50 was 11 µM. Moreover, in data set [7], the “mean concentration achieved in the breast” value is “around 20 μM”; the “Tissue concentration, Breast” value stood at 92.1 µM; the “Tissue concentration, Faeces” value is 0.1 µM; the “Tissue concentration, Intestine” value was determined as 44.0 µM. Besides, in data set [7], the “Tissue concentration, Liver” value worked out at 136.9 µM; the “Tissue concentration, Lung” value amounted to 6.2 µM; the “Tissue concentration, Plasma” value worked out at 3.9 µM; the “Tissue concentration, Tumor” value is 154.3 µM. The “Tissue concentration, Urine” value in [7] amounted to 6.6 µM. Further, in data set [8], the “CYP stability (% compound after 60 min)” value was determined as 33% and the “CYP UGT stability (% compound after 60 min)” value was determined as 49%. Besides, in the data set with DVL2 and DVL3 in L-cells, the “DVL2 and DVL3 phosphorylation shift upon Wnt3a stimulation” value is on record as “clearly inhibited the shift”. In the data set with DVL2 in HCC 1395 cells, the “DVL2 phosphorylation shift upon Wnt3a stimulation” value is “clearly inhibited the shift”. For the same compound, the colony formation result with TNBC cell lines is recorded as “inhibition of colony formation”. Also, in the data set with HCC 1395, the “Efficiency (%)” value is on record as 90% and the IC50 is 8 µM. For the same compound, in the data set on HCC 1806, the “Efficiency (%)” value was found to be 79% and the IC50 was found to be 18 µM. For the same compound, in the data set on MDA-MB 468, the “Efficiency (%)” value is 93% and the IC50 was 12 µM. In the data set with MDA-MB 231, the “Efficiency (%)” value is reported as 63% and the IC50 was found to be 6 µM. In addition, in the data set on BT-20, the “Efficiency (%)” value came out at 90% and the midpoint of inhibition, the IC50, lay at 15 µM.
With `O=C(CCc1cn(-c2ccccc2)nc1-c1ccc2c(c1)OCO2)NCCc1cccs1` [Compound 13], in [6], the “Efficacy (%)” value was 77.0% and the IC50 came to 6.5 µM.
The like results for `O=C(Nc1ccccc1)N1CCC(n2nc(-c3ccccc3)cc2-c2ccccc2)CC1` [Compound 26] were, in that order, 72.7% and 16.5 µM.
Taken in the same sequence, the figures for `O=C(CCc1cn(-c2ccccc2)nc1-c1ccc2c(c1)OCO2)NCCc1ccccc1` [Compound 11] were 88.4% and 5.2 µM.
Taken in the same sequence, the figures for `O=C(CCc1cn(-c2ccccc2)nc1-c1ccc2c(c1)OCO2)NCCc1ccco1` [Compound 7] were 85.0% and 15.2 µM.
Consider `Cc1ccccc1Cn1cc(-c2ccncc2)cc1C(=O)N1CCN(c2ccccc2)CC1` [Compound 24], for which, in data set [6], the “Efficacy (%)” value came to 94.8% and the IC50 was 18.3 µM. In data set [7], the “mean concentration achieved in the breast” value was “around 8 μM”; the “Tissue concentration, Breast” value was 8.6 µM; the “Tissue concentration, Faeces” value stood at 0.1 µM; the “Tissue concentration, Intestine” value is 0.3 µM. Moreover, in data set [7], the “Tissue concentration, Liver” value worked out at 0.3 µM; the “Tissue concentration, Lung” value amounted to 0.3 µM; the “Tissue concentration, Plasma” value is 0.3 µM; the “Tissue concentration, Tumor” value was 0.3 µM. Moreover, the “Tissue concentration, Urine” value in data set [7] is 0.1 µM. Besides, in [8], the “CYP stability (% compound after 60 min)” value turned out to be 67% and the “CYP UGT stability (% compound after 60 min)” value is reported as 76%.

The values are drawn from patent publication US20210002265A1, “PYRAZOLE DERIVATIVES AS INHIBITORS OF THE WNT SIGNALLING PATHWAY” (Université de Lausanne, priority 2018, published 2021).
